Measurements published in PMC10726355, “Small Molecule Ligands of the BET-like Bromodomain, SmBRD3, Affect Schistosoma mansoni Survival, Oviposition, and Development” (Journal of Medicinal Chemistry, 2023).
≈ marks a conversion by molar mass, not a printed value. Entries after “also recorded” stand apart in the source; their conditions may differ. Like-named read-outs stand apart in the source and are kept apart here.

Legend:
[1] = chromLogD assay; assay type: physicochemical; conditions: reversed phase HPLC column (Gemini NX C18), pH 7.4
Protocol: Lipophilicity: a chromLogD assay was carried out by the Physchem Team, Discovery Analytical, NCE Molecular Discovery at GSK. The chromatographic hydrophobicity index (CHI)[46],[47] values were measured using reversed phase HPLC column (50 × 2 mm […] Gemini NX C18, Phenomenex, UK) with fast acetonitrile gradient at starting mobile phase of pHs 2, 7.4, or 10.5. CHI values were derived directly from the gradient retention times using calibration parameters for standard compounds. The CHI value approximates to the volume % organic concentration when the compound elutes. CHI was linearly transformed into a chromLogD[48] value by least-squares fitting of experimental CHI values to calculated cLogP values for over 20000 research compounds.

[2] = molecular target: SmBRD3(2) (Schistosoma mansoni, UniProt A0A5K4ESD7); assay: biochemical; assay type: binding
[3] = tested on: S. mansoni adult worms; assay: Ex vivo adult worm screening (motility, IVLEs, pairing); design: species or system Schistosoma mansoni; conditions: 72 h
Protocol: S. mansoni adult worms were recovered by hepatic portal vein perfusion from TO mice (Mus musculus HsdOLa:TO - Tuck Ordinary; Envigo, UK) that were percutaneously infected 7 weeks earlier with 180 cercariae.[65],[71] Following perfusion, schistosomes were washed and processed as previously described.[65],[66] Subsequently, schistosome pairs were seeded into 48 well tissue culture plates (1 worm pair/well, in duplicate) and dosed with the compounds (20 μM in 0.2% DMSO). DMSO (0.2%) and praziquantel (10 μM in 0.1% DMSO) were also included as negative and positive controls, respectively. Parasite motility was assessed by a digital image processing-based system (WormassayGP2),[66] modified after Wormassay.[72]In vitro laid eggs (IVLEs) were enumerated and the presence or absence of paired worms was noted.

[4] = tested on: S. mansoni miracidia; assay: Ex vivo miracidia to sporocyst transformation screening; design: species or system Schistosoma mansoni; conditions: 48 h; for Effect on miracidia to sporocyst transformation: 26 °C
Protocol: S. mansoni miracidia were obtained by hatching of schistosome eggs as previously described.[73] The resulting miracidial suspension was collected, washed with Chernin’s balanced salt solution (CBSS),[73] and enumerated prior to being used for ex vivo miracidia to sporocyst screens as previously reported.[66],[73] Each compound was tested at 0.5, 2.0, 5.0, 10, and 25 μM final concentrations (in 1% DMSO). Each treatment was set up in duplicate (15–25 miracidia/well). Each titration was performed in three independent experiments (two technical replicates per data point). Parasites cultured in CBSS (containing 1% DMSO) were included as negative controls. After 48 h incubation at 26 °C in the dark, dead, fully transformed and partially transformed miracidia were enumerated as previously described.[74],[75]

[5] = tested on: S. mansoni schistosomula; assay: Ex vivo schistosomula screening (Roboworm high content imaging); design: species or system Schistosoma mansoni; conditions: 72 h; for EC50: Schistosoma mansoni, ethyl esters (R=Et), 95% CI in brackets
Protocol: A high-throughput imaging platform that quantifies both phenotype and motility ex vivo, was used to screen compounds against schistosomula; their effects were assessed as previously described.[20] Briefly, the schistosomula stage of S. mansoni was obtained by mechanical transformation of cercariae, dispensed into 384-well tissue culture plates, and dosed with 20 μM (Figure 7) or 10 μM (Figure S48) of each compound. Following 72 h coincubation of the schistosomula and compound, the plate was subjected to high content imaging to quantify the effects of each compound.
S. mansoni schistosomula were obtained by mechanical transformation from cercariae as previously described,[64] distributed in 384-well tissue culture plates (PerkinElmer, catalogue number 6007460) at 120 parasites/well and dosed with the selected compounds as previously reported.[65]−[68] For this study, each compound (as 10 mM DMSO stock solution) was initially tested at two concentration points (20 and 10 μM final concentration, in duplicates) in at least four independent screens (Z′ scores above 0.35).[69] Each screen contained both positive (10 μM auranofin (AUR) in 0.625% DMSO) and negative (0.625% DMSO) controls. […] Following 72 h schistosomula/compound coincubation, the plate was analyzed by the Roboworm platform.[70] EC50 values were calculated from the titrated concentrations by nonlinear regression, after log transformation of concentrations and data normalization using GraphPad Prism 7.02.

[6] = CAD solubility assay; assay type: physicochemical; conditions: phosphate buffered saline, pH 7.4, phosphate buffered saline at pH 7.4; read-out: Aqueous Solubility by CAD
Protocol: A CAD solubility assay was carried out by Physchem Team, Discovery Analytical, NCE Molecular Discovery at GSK. 5 μL of 10 mM DMSO stock solution was diluted to 100 μL with pH 7.4 phosphate buffered saline, equilibrated for 1 h at room temperature, and filtered through Millipore MultiscreenHTS-PCF filter plates (MSSL BPC). The filtrate was quantified using a suitably calibrated charged aerosol detector.[45]

[7] = tested on: adult male S. mansoni; assay: Determination of compound parasite permeability (LCMS of worm lysate); assay type: in vitro ADME, Schistosoma mansoni
[8] = Compound conversion in media with or without worms (LCMS); assay type: in vitro ADME; conditions: media in the presence or absence of worms; 20 μM; 24 h
Protocol: As the low solubility of the ethyl ester derivatives prevented us from determining their affinity for SmBRD3(2) using ITC, it is possible that these compounds are themselves inhibitors of SmBRD3(2). Alternatively, the ethyl esters could function as pro-drugs that release the corresponding acid in the parasite. To investigate compound permeability, adult worms were treated with 20 μM of the acid 15 or the ethyl ester 22 for 24 h, and then the media exchanged three times. The worms were then lysed and the levels of the acid 15 or the ethyl ester 22 were determined using LCMS (Figure S50).
Figure S-52. A. Estimation of the concentration of 15 and 22 in media after incubation with 22 in the presence and absence of S. mansoni. The concentration estimations were calculated as an average (presence of worm n=3, no worm n=2) from the analysis media in the presence (5 worms per well) or absence of worms, with error bars representing the s.e.m. B. Estimation of the concentration of 1 and 2 in media after incubation with 2 in the presence and absence of S. mansoni. The concentration estimations were calculated as an average (presence of worm n=2, no worm n=1) from the analysis of media in the presence (5 worms per well) or absence of worms with error bars representing the […]

[9] = tested on: SmBRD3(1,2); assay: Differential scanning fluorimetry (thermal shift), SmBRD3(1,2); conditions: DSF; 50 μM compound
Protocol: Reported ΔTm values are the mean of two replicates.
The differential scanning fluorimetry (DSF) or thermal stability assays were carried out following the protocol described by Niesen et al. and data were analysed as described previously.8 Thermal melting experiments were carried out using the Mx3005p real-time PCR machine (Agilent) and employing a protein concentration of 5 μM for the schistosomal bromodomains [SmBRD3(2),
the DMSO content was 0.5% (v/v). Buffer conditions were 50 mM HEPES buffer, pH 7.5, 500 mM NaCl and a 1:500 dilution of SYPRO® Orange (Invitrogen, CA) was used. The 96-well PCR plates were sealed and centrifuged for 2 min at 1000 rpm at 25 °C before measurement. The temperature was raised with a step of 1 °C per 30 s from 25 °C to 85 °C, and fluorescence readings were taken
difference between the transition midpoints of sample and reference wells containing protein without inhibitor in the same plate. Reported ΔTm values are the mean of two replicates.
Isothermal titration calorimetry experiments were performed on a MicroCal PEAQ-ITC Automated or Manual (Malvern) and analysed with the MicroCal PEAQ-ITC Analysis software (Malvern 1.1.0.1262) using a single binding site model. For each experiment, the first data point was removed from the analysis. The proteins were dialysed at 4 °C overnight in a Slide-A-LyzerR MINI Dialysis Device (2000 MWCO; Thermo Scientific Life Technologies) into 50 mM HEPES, 150 mM NaCl containing 0.2% DMSO; pH 7.4. Proteins were centrifuged to remove aggregates (3 min, 3000 rpm, 25 °C).
Compounds were dissolved as a DMSO stock solution and diluted to the required concentration using dialysis buffer (DMSO free) and to a final DMSO concentration of 0.2% (unless otherwise specified). The cell was stirred at 750 rpm, reference power set to 5 μcal/s and temperature held at 25 °C. After an initial delay of 60 s, 19 x 2 μL injections (first injection 0.4 μL) were performed with a spacing of 180 s. […]

[10] = molecular target: SmBRD3(1,2) (Schistosoma mansoni, UniProt A0A5K4ESD7); assay: biochemical; assay type: binding; conditions: for N number, binding to SmBRD3(1,2): ITC stoichiometry, n=1 ± error of curve fit
[11] = 20 μM (Figure 7) or 10 μM (Figure S48)
[12] = ITC, single run ± error of curve fit, Repeat 1
[13] = ITC, single value ± error of the curve fit or mean of 2-3 repeats ± s.e.m.
[14] = SmBRD3(1,2) Kd, ITC, n = 1 ± error of the curve fit

Compound	SmBRD3(2) Kd [2]	SmBRD3(2) Kd, Repeat 1 [2]	Effect on miracidia to sporocyst transformation ([4]; 0.5-25 μM in 1% DMSO)	Effect on schistosomula phenotype [5, 11]	Conversion in media (ester hydrolysis / deacetylation) [8]	Thermal stabilisation (ΔTm) of SmBRD3(1,2) [9]	SmBRD3(2) Kd, Repeat 1 [2, 12]	SmBRD3(2) Kd [2, 13]	N number, binding to SmBRD3(1,2) [10]	Kd [10, 14] [nM]	Kd ([10]; SmBRD3(1,2) pKd, ITC) [nM]	also measured
CCOC(=O)c1ccc(-c2ccc3c(c2)[C@H](Nc2ccc4ncccc4c2)C[C@H](C)N3C(C)=O)cc1 [Compound 22, Ethyl 4-{(2S,4R)-1-Acetyl-2-methyl-4-[(quinolin-6-yl)amino]-1,2,3,4-tetrahydroquinolin-6-yl}benzoate]	No binding	No binding	concentration-dependent inhibition; also recorded: substantial and concentration-dependent effect	greatest effects; also recorded: strong effects	some ester hydrolysis	–	–	–	–	–	–	chromatographic logD [1]: 5.95; Effect on adult worm movement ([3]; 20 μM in 0.2% DMSO): substantial effects; also recorded: reduced; Effect on egg count (in vitro laid eggs) ([3]; 20 μM): reduced; Effect on worm pairing ([3]; 20 μM): reduced; Concentration at which the majority of miracidia were prevented from transforming into sporocysts [4]: 2.00 µM; Antischistosomula activity at 10 μM ([5]; 10 μM): active; Effect on schistosomula motility [5, 11]: greatest effects; also recorded: strong effects; EC50 ([5]; read-out: Schistosomla Movement EC50): 3300 nM; EC50 ([5]; read-out: Schistosomla Phenotype EC50): 1110 nM; solubility at 1 h [6]: 13 µM (≈ 6.23 µg/mL); Worm permeability ([7]; adult worms, 20 μM, 24 h): high worm permeability; Conversion of ester to acid 15 in the worm ([7]; worms treated with 20 μM for 24 h, LCMS): can be converted from the ester to the acid in the worm; Quantity of compound found in lysed adult worms ([7]; worms treated with 20 μM of the same compound for 24 h, LCMS): High quantities
Cc1noc(C)c1-c1cc(O)cc(C(O)c2ccccc2)c1 (stereo not drawn) [OXFBD02 (1), OXFBD02, reference compound]	–	–	modest effects	–	–	stabilize SmBRD3(1,2)	No binding	no binding detected; also recorded: No detectable binding	1.61 ± 3.3e-2	683 ± 166	631	–
CC(=O)Oc1cc(-c2c(C)noc2C)cc(C(O)c2ccccc2)c1 (stereo not drawn) [OXFBD03 (2), OXFBD03, reference compound]	–	–	–	–	rapidly deacetylated	–	No binding	No detectable binding	1.17 ± 1.7e-2	675 ± 97.6	631	–
(+)-JQ1 [(+)-JQ1 (5), reference compound]	no binding detected; also recorded: No detectable binding	No binding	–	showed activity	–	stabilize SmBRD3(1,2)	–	–	3.87 ± 7.0 e-2	–	–	Toxicity to miracidia (dead parasites) ([4]; 0.5-25 μM in 1% DMSO): toxic at the higher concentrations; SmBRD3(1,2) pKd ([10]; ITC): 6.4; Kd ([10]; ITC, n = 1 ± error of the curve fit, read-out: SmBRD3(1,2) Kd): 445 ± 106 nM
